Columns and labels:
Assay type in all cases: in vivo
[1] = tested on: Scirpus juncoides; test: Test Example 1: herbicidal activity, application before weed generation in submerged conditions (symbol B); conditions: application herbicide amount 320 g/ha
Method in brief: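 Application before weed emergence: an aqueous dilution of the emulsion formulation was poured onto the surface of 4 cm-deep floodwater on the day of sowing. Effect was judged after 3 weeks (greenhouse, 25–30 °C).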

[2] = tested on: directly sowed rice plant; test: Test Example 3: effect on crop by foliage application, Wagner pot (symbol b); conditions: application herbicide amount 320 g/ha; for b (directly sowed rice plant) effect on crop grade: Table 24
Method in brief: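 Plants are raised from seed in flooded paddy conditions: water stands 0.1–0.5 cm over alluvial soil, and the pot is kept in a greenhouse at 25–30 °C. Species sown are barnyardgrass (E. crus-galli var. crus-galli), Leptochloa chinensis, Cyperus difformis and rice.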

[3] = tested on: Digitaria ciliaris; test: Test Example 4: herbicidal effect by soil treatment (symbol F)
Method in brief: (§1)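 Seeds were sown in sterilized diluvial soil, covered with about 1.5 cm of soil, and the soil surface was sprayed with a water-diluted emulsion of the compound at a predetermined rate. Plants grew in a greenhouse at 25° C. to 30° C.; effects were scored visually 3 weeks after application.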

[4] = tested on: Echinochloa crus-galli var. crus-galli; test: Test Example 4: herbicidal effect by soil treatment (symbol H)
Method in brief: as §1

[5] = tested on: Avena fatua; test: Test Example 4: herbicidal effect by soil treatment (symbol I)
Method in brief: as §1

[6] = tested on: Lolium multiflorum Lam.; test: Test Example 4: herbicidal effect by soil treatment (symbol K)
Method in brief: as §1

[7] = tested on: Chenopodium album; test: Test Example 4: herbicidal effect by soil treatment (symbol O)
Method in brief: as §1

[8] = tested on: rice; test: Test Example 4: effect on crop by soil treatment (symbol b); conditions: for b: directly sowed rice plant, effect grade on crop: 320 g/ha
Method in brief: (§2)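 Plants grew in a 25° C. to 30° C. greenhouse after spot-sowing of seeds, including beet, rapeseed, wheat and rice, into sterilized diluvial soil under roughly 1.5 cm of cover soil.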

[9] = tested on: rapeseed; test: Test Example 4: effect on crop by soil treatment (symbol g); conditions: for g: rapeseed, effect grade on crop: 320 g/ha
Method in brief: as §2

[10] = tested on: Digitaria ciliaris; test: Test Example 5: herbicidal effect by foliage application, plastic box (symbol F); conditions: 320 g/ha, 3 weeks after application
Method in brief: (§3)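 Leaf-applied emulsion, water-diluted to a preset herbicide dose, on two-week-old seedlings raised in a 25° C. to 30° C. greenhouse; injury rated at 3 weeks using earlier criteria.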

[11] = tested on: Avena fatua; test: Test Example 5: herbicidal effect by foliage application, plastic box (symbol I); conditions: 320 g/ha, 3 weeks after application
Method in brief: as §3

[12] = tested on: Chenopodium album; test: Test Example 5: herbicidal effect by foliage application, plastic box (symbol O); conditions: 320 g/ha, 3 weeks after application
Method in brief: as §3

[13] = tested on: Stellaria media; test: Test Example 5: herbicidal effect by foliage application, plastic box (symbol P); conditions: 320 g/ha, 3 weeks after application
Method in brief: as §3

[14] = tested on: Veronica persica; test: Test Example 5: herbicidal effect by foliage application, plastic box (symbol R); conditions: 320 g/ha, 3 weeks after application
Method in brief: as §3

[15] = tested on: corn; test: Test Example 5: effect on crop by foliage application, plastic box (symbol c); conditions: 320 g/ha, 3 weeks after application
Method in brief: (§4)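 Foliage-application test plants come from spot sowing in sterilized diluvial soil under a soil layer of about 1.5 cm, grown at 25° C. to 30° C. in a greenhouse.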

[16] = tested on: wheat; test: Test Example 5: effect on crop by foliage application, plastic box (symbol e); conditions: 320 g/ha, 3 weeks after application
Method in brief: as §4

[17] = tested on: rapeseed; test: Test Example 5: effect on crop by foliage application, plastic box (symbol g); conditions: 320 g/ha, 3 weeks after application
Method in brief: as §4

[18] = application herbicide amount 320 g/ha

Row | Structure (SMILES) | Herbicidal effect grade, B: Scirpus juncoides [1] | effect on crop b (directly sowed rice plant), grade 0-5 [2] | F: Digitaria ciliaris, herbicidal effect grade ([3]; 320 g/ha) | H: Echinochloa crus-galli var. crus-galli, herbicidal effect grade ([4]; 320 g/ha) | I: Avena fatua, herbicidal effect grade ([5]; 320 g/ha) | K: Lolium multiflorum Lam., herbicidal effect grade ([6]; 320 g/ha) | O: Chenopodium album, herbicidal effect grade ([7]; 320 g/ha) | b: directly sowed rice plant, effect grade on crop [8] | g: rapeseed, effect grade on crop [9] | F: Digitaria ciliaris, herbicidal effect (criteria 0-5) [10] | B (Scirpus juncoides) herbicidal effect grade [1] | b (directly sowed rice plant) effect on crop grade [2] | F: Digitaria ciliaris, herbicidal effect grade [10] | I: Avena fatua, herbicidal effect grade [11] | O: Chenopodium album, herbicidal effect grade [12] | P: Stellaria media, herbicidal effect grade [13] | R: Veronica persica, herbicidal effect grade [14] | c: corn, effect on crop grade [15] | e: wheat, effect on crop grade [16] | g: rapeseed, effect on crop grade [17] | further results
1 | CON=C(C)CC1CC(OS(=O)(=O)N(C)C)=C(c2c(C)cc(C)cc2C)C1=O (stereo not shown) [1-122] | 5 (Herbicidal ratio of 90% or more (almost completely withered)) | 5 (Herbicidal ratio of 90% or more (almost completely withered)) | 2 (Herbicidal ratio of 20% or higher and lower than 40%) | 4 (Herbicidal ratio of 70% or higher and lower than 90%) | 2 (Herbicidal ratio of 20% or higher and lower than 40%) | 5 (Herbicidal ratio of 90% or more (almost completely withered)) | 0 (Herbicidal ratio of 5% or lower (almost no effect)) | 4 (Herbicidal ratio of 70% or higher and lower than 90%) | 0 (Herbicidal ratio of 5% or lower (almost no effect)) | 4 (Herbicidal ratio of 70% or higher and lower than 90%) | – | – | – | – | – | – | – | – | – | – | I: Avena fatua, herbicidal effect (criteria 0-5) [11]: 5 (Herbicidal ratio of 90% or more (almost completely withered)); O: Chenopodium album, herbicidal effect (criteria 0-5) [12]: 0 (Herbicidal ratio of 5% or lower (almost no effect)); P: Stellaria media, herbicidal effect (criteria 0-5) [13]: 1 (Herbicidal ratio of 5% or higher and lower than 20%); R: Veronica persica, herbicidal effect (criteria 0-5) [14]: 0 (Herbicidal ratio of 5% or lower (almost no effect)); c: corn, effect on crop (criteria 0-5) [15]: 5 (Herbicidal ratio of 90% or more (almost completely withered)); e: wheat, effect on crop (criteria 0-5) [16]: 4 (Herbicidal ratio of 70% or higher and lower than 90%); g: rapeseed, effect on crop (criteria 0-5) [17]: 5 (Herbicidal ratio of 90% or more (almost completely withered))
2 | CON=C(CC1CC(O)=C(c2c(C)cc(-n3cc(Cl)cn3)cc2C)C1=O)C1CC1 (stereo not shown) [9-007] | – | – | – | – | – | – | – | – | – | – | 4 (Herbicidal ratio of 70% or higher and lower than 90%) | 5 (Herbicidal ratio of 90% or more (almost completely withered)) | 5 (Herbicidal ratio of 90% or more (almost completely withered)) | 5 (Herbicidal ratio of 90% or more (almost completely withered)) | 3 (Herbicidal ratio of 40% or higher and lower than 70%) | 3 (Herbicidal ratio of 40% or higher and lower than 70%) | 4 (Herbicidal ratio of 70% or higher and lower than 90%) | 5 (Herbicidal ratio of 90% or more (almost completely withered)) | 4 (Herbicidal ratio of 70% or higher and lower than 90%) | 4 (Herbicidal ratio of 70% or higher and lower than 90%) | Herbicidal effect grade, F: Digitaria ciliaris [3, 18]: 5 (Herbicidal ratio of 90% or more (almost completely withered)); Herbicidal effect grade, H: Echinochloa crus-galli var. crus-galli [4, 18]: 3 (Herbicidal ratio of 40% or higher and lower than 70%); Herbicidal effect grade, I: Avena fatua [5, 18]: 3 (Herbicidal ratio of 40% or higher and lower than 70%); Herbicidal effect grade, K: Lolium multiflorum Lam. [6, 18]: 5 (Herbicidal ratio of 90% or more (almost completely withered)); Herbicidal effect grade, O: Chenopodium album [7, 18]: 0 (Herbicidal ratio of 5% or lower (almost no effect)); Effect on crop grade, b: directly sowed rice plant [8, 18]: 5 (Herbicidal ratio of 90% or more (almost completely withered)); Effect on crop grade, g: rapeseed [9, 18]: 0 (Herbicidal ratio of 5% or lower (almost no effect))
3 | CCC(CC1CC(O)=C(c2c(C)cc(C)cc2OC)C1=O)=NOC (mixture of isomers) [13-003] | – | – | – | – | – | – | – | – | – | – | 5 (Herbicidal ratio of 90% or more (almost completely withered)) | 5 (Herbicidal ratio of 90% or more (almost completely withered)) | 5 (Herbicidal ratio of 90% or more (almost completely withered)) | 5 (Herbicidal ratio of 90% or more (almost completely withered)) | 0 (Herbicidal ratio of 5% or lower (almost no effect)) | 1 (Herbicidal ratio of 5% or higher and lower than 20%) | 1 (Herbicidal ratio of 5% or higher and lower than 20%) | 5 (Herbicidal ratio of 90% or more (almost completely withered)) | 5 (Herbicidal ratio of 90% or more (almost completely withered)) | 4 (Herbicidal ratio of 70% or higher and lower than 90%) | F: Digitaria ciliaris, herbicidal effect grade [3, 18]: 5 (Herbicidal ratio of 90% or more (almost completely withered)); H: Echinochloa crus-galli var. crus-galli, herbicidal effect grade [4, 18]: 5 (Herbicidal ratio of 90% or more (almost completely withered)); I: Avena fatua, herbicidal effect grade [5, 18]: 1 (Herbicidal ratio of 5% or higher and lower than 20%); K: Lolium multiflorum Lam., herbicidal effect grade [6, 18]: 5 (Herbicidal ratio of 90% or more (almost completely withered)); O: Chenopodium album, herbicidal effect grade [7, 18]: 0 (Herbicidal ratio of 5% or lower (almost no effect)); b: directly sowed rice plant, effect on crop grade [8, 18]: 5 (Herbicidal ratio of 90% or more (almost completely withered)); g: rapeseed, effect on crop grade [9, 18]: 3 (Herbicidal ratio of 40% or higher and lower than 70%)
4 | CCC(CC1CC(O)=C(c2c(C)cc(-c3ccccc3)cc2OC)C1=O)=NOC (mixture of isomers) [13-004] | – | – | – | – | – | – | – | – | – | – | 5 (Herbicidal ratio of 90% or more (almost completely withered)) | 5 (Herbicidal ratio of 90% or more (almost completely withered)) | 5 (Herbicidal ratio of 90% or more (almost completely withered)) | 5 (Herbicidal ratio of 90% or more (almost completely withered)) | 4 (Herbicidal ratio of 70% or higher and lower than 90%) | 2 (Herbicidal ratio of 20% or higher and lower than 40%) | 3 (Herbicidal ratio of 40% or higher and lower than 70%) | 5 (Herbicidal ratio of 90% or more (almost completely withered)) | 5 (Herbicidal ratio of 90% or more (almost completely withered)) | 4 (Herbicidal ratio of 70% or higher and lower than 90%) | F: Digitaria ciliaris, herbicidal effect grade [3, 18]: 5 (Herbicidal ratio of 90% or more (almost completely withered)); H: Echinochloa crus-galli var. crus-galli, herbicidal effect grade [4, 18]: 5 (Herbicidal ratio of 90% or more (almost completely withered)); I: Avena fatua, herbicidal effect grade [5, 18]: 3 (Herbicidal ratio of 40% or higher and lower than 70%); K: Lolium multiflorum Lam., herbicidal effect grade [6, 18]: 5 (Herbicidal ratio of 90% or more (almost completely withered)); O: Chenopodium album, herbicidal effect grade [7, 18]: 0 (Herbicidal ratio of 5% or lower (almost no effect)); b: directly sowed rice plant, effect on crop grade [8, 18]: 5 (Herbicidal ratio of 90% or more (almost completely withered)); g: rapeseed, effect on crop grade [9, 18]: 4 (Herbicidal ratio of 70% or higher and lower than 90%)
5 | CC(CC1CC(O)=C(c2c(C)cc(C)cc2C)C1=O)=NOC1CCCC1 (stereo not shown) [1-106] | 3 (Herbicidal ratio of 40% or higher and lower than 70%) | 5 (Herbicidal ratio of 90% or more (almost completely withered)) | 5 (Herbicidal ratio of 90% or more (almost completely withered)) | 5 (Herbicidal ratio of 90% or more (almost completely withered)) | 3 (Herbicidal ratio of 40% or higher and lower than 70%) | 5 (Herbicidal ratio of 90% or more (almost completely withered)) | 0 (Herbicidal ratio of 5% or lower (almost no effect)) | 5 (Herbicidal ratio of 90% or more (almost completely withered)) | 3 (Herbicidal ratio of 40% or higher and lower than 70%) | 5 (Herbicidal ratio of 90% or more (almost completely withered)) | – | – | – | – | – | – | – | – | – | – | I: Avena fatua, herbicidal effect (criteria 0-5) [11]: 5 (Herbicidal ratio of 90% or more (almost completely withered)); O: Chenopodium album, herbicidal effect (criteria 0-5) [12]: 2 (Herbicidal ratio of 20% or higher and lower than 40%); P: Stellaria media, herbicidal effect (criteria 0-5) [13]: 2 (Herbicidal ratio of 20% or higher and lower than 40%); R: Veronica persica, herbicidal effect (criteria 0-5) [14]: 1 (Herbicidal ratio of 5% or higher and lower than 20%); c: corn, effect on crop (criteria 0-5) [15]: 5 (Herbicidal ratio of 90% or more (almost completely withered)); e: wheat, effect on crop (criteria 0-5) [16]: 4 (Herbicidal ratio of 70% or higher and lower than 90%); g: rapeseed, effect on crop (criteria 0-5) [17]: 3 (Herbicidal ratio of 40% or higher and lower than 70%)

Source: patent publication US11000033B2, “Ketone or oxime compound, and herbicide” (NISSAN CHEMICAL CORPORATION, priority 2014, dated 2021)
